From publication PMC9072872, “Structure-based design of nucleoside-derived analogues as sulfotransferase inhibitors” (RSC Advances, 2019)

Target: PKA (Homo sapiens, UniProt P17612)
Assay: PKA kinase counter-screen
Format: biochemical
Conditions: compound 400 μM, PKA 1 nM, ATP 5 μM, 30 min, 20 °C
From the text: Fig. 5 Immunological evaluation of TPST1 inhibition towards substrate and a Ser/Thr protein kinase counter-screen. (A) Immunoblots evaluating TPST1 sulfotransferase activity in the presence of a panel of PAP- and PAPS-mimetic compounds. […] After termination of the reaction using SDS-PAGE sample buffer, tyrosine sulfation was visualised by immunoblotting using a monoclonal sulfotyrosine antibody (top panel), with equal GST-CC4-tide and TPST1 loading confirmed using an antibody to detect 6xHis tagged proteins (bottom panel). (B) Enzymatic inhibition of PKA catalytic activity by a panel of PAP- and PAPS-mimetic compounds. PKA kinase (1 nM) was incubated with ATP (5 μM) in the presence of the appropriate nucleoside analogue (400 μM) for 30 min at 20 °C. PKA activity was calculated in real-time using fluorescently-labelled substrate peptide (2 μM) and normalised to DMSO (4% v/v) or buffer control.[77] Data in B is mean and SD of 3 individual experiments. Staurosporine is included at 40 μM as a generic inhibitor of kinase activity.
Finally, a simple counter-screen was set up employing PKA. This was carried out in order to assess relative specificity for ST inhibition, and using the generic kinase inhibitor staurosporine A as a positive control and PAP and CoA as negative controls, neither of which bind nor inhibit PKA. Compounds were screened at 400 μM in the presence 1 nM PKA.

Nc1ncnc2c1ncn2[C@H]1C[C@H](OP(=O)(O)O)[C@@H](COP(=O)(O)O)O1 [2′-deoxy-PAP]
inhibitory activity towards PKA: no activity
